For orientation: IC50 means the concentration at which inhibition is half-maximal.

Assay [1] concerns the target T1, FPTase (Homo sapiens, UniProt P49354+P49356). Description: in vitro FTase Inhibition Assay, H-Ras used as substrate for farnesylation. It counts as biochemical. The conditions noted are these: Table I, read-out: IC50 H-Ras*. How it is done:
(§1) Enzyme test procedure: FPTase inhibition in vitro assay was performed according to James, G. L., Brown, M. S., and Goldstein, J. L., Methods in Enzymology, 1995, 255, 38-46; and Garcia, M. A., et al., J. Biol. Chem., 1993, 268, 18415-18420.
(§2) Materials—Purified FPTase (Moomaw, J. F. and Casey, P. J., J. Biol. Chem., 1992, 267, 17438-17443), purified His6-Ras, inhibitor compounds at 10 mg/ml or 10 mM in 100% DMSO, ^3H-FPP (50,000 dpm/pmol) Amersham, TCA/SDS (6%/2%), TCA (6%), Glass fiber filters ([…]), vacuum manifold or 96 well filtration plates.
(§3) Methods—1. Dilute FPTase inhibitors from stock solutions to 2.5× in 2.5% DMSO, 10 mM DTT, 0.5% octyl-B-glucoside. 2. Solution #1 is added to FPTase reaction in a volume of […]. 3. Standard reaction mix, […], contains 50 mM Tris (7.5), 10 mM ZnCl2, 3 mM MgCl2, 20 mM KCl, 5 mM DTT, 0.2% octyl-B-glucoside, 1% DMSO, […] His6-Ras, 10 ng FPTase, and various concentrations of FPTase inhibitors. 4. Incubate for 30-90 min at 25° C. 5. Stop reactions with TCA/SDS (6%/2%), hold at 4° C. for 45-60 min. 6. Filter by manifold or 96 well plate, wash filter 3-5× with TCA (6%). 7. Add scintillant to filters, measure ^3H-FPP incorporation into Ras protein.
(§4) Analysis of Results—Percent inhibition by test compounds is determined by the following:
(§5) (cpm from precipitated Ras with test compounds)−(background cpm)×100=% inhibition.
(§6) (cpm from precipitated Ras without test compounds)−(background cpm)

The target of assay [2] is T1, FPTase. Description: in vitro FTase Inhibition Assay, K-Ras used as substrate for farnesylation. It counts as biochemical. The settings on record: Table I. How it is done:
as §1, §2, §3, §4, §5, §6

Consider `COc1ccc(S(=O)(=O)C2(CCCC#Cc3cc(NC(=O)OC(C)C)ccc3C)SC(=O)N(C(=O)OC(C)C)C2=O)cc1` (stereo not shown) [Example 229, Isopropyl 5-(5-{5-[(isopropoxycarbonyl)-amino]-2-methylphenyl}pent-4-ynyl)-5-[(4-methoxyphenyl)sulfonyl]-2,4-dioxo-1,3-thiazolidine-3-carboxylate], for which the IC50 in assay [1] lay within 6 to 20 nM; in assay [2], 100 to 700 nM.
In the same order, the values of `COc1ccc(S(=O)(=O)C2(CCCC#Cc3cc(NC(=O)OCc4ccccc4)ccc3C)SC(=O)N(C(=O)OCc3ccccc3)C2=O)cc1` (stereo not shown) [Example 226, Benzyl 5-[5-(5-{[(benzyloxy)carbonyl]-amino}-2-methylphenyl)pent-4-ynyl]-5-[(4-methoxyphenyl)sulfonyl]-2,4-dioxo-1,3-thiazolidine-3-carboxylate] are 30 to 50 nM and 100 to 3200 nM.
Turning to `COc1ccc(S(=O)(=O)C2(CCCC#Cc3ccc(Cl)cc3)SC(=O)NC2=O)cc1` (stereo not shown) [Example 97, 5-[5-(4-Chlorophenyl)pent4-ynyl]-5-(4-methoxyphenylsulfonyl)-thiazolidine-2,4-dione], the concentration for half-maximal inhibition (IC50) was 75 to 150 nM in assay [1] and 3500 to 5500 nM in assay [2].
In the same order, the values of `COC(=O)Nc1ccc(C)c(C#CCCCC2(S(=O)(=O)c3ccc(OC)cc3)SC(=O)NC2=O)c1` (stereo not shown) [Example 178, (3-{5-[5-(4-Methoxybenzenesulfonyl)-2,4-dioxothiazolidin-5-yl]pent-1-ynyl}-4-methylphenyl)carbamic Acid Methyl Ester] are 17 to 32 nM and 10 nM.
The corresponding values for `COc1ccc(S(=O)(=O)C2(CC#Cc3ccc(-c4ccccc4)cc3)SC(=O)NC2=O)cc1` (stereo not shown) [Example 171, 5-(3-Biphenyl-4-yl-prop-2-ynyl)-5-(4-methoxybenzenesulfonyl)-thiazolidine-2,4-dione] are 200 nM and 3300 nM.
The corresponding values for `CCCCOC(=O)Nc1ccc(C)c(C#CCCCC2(S(=O)(=O)c3ccc(OC)cc3)SC(=O)N(C(=O)OCCCC)C2=O)c1` (stereo not shown) [Example 231, Butyl 5-(5-{5-[(butoxycarbonyl)amino]-2-methylphenyl}pent-4-ynyl)-5-[(4-methoxy-phenyl)sulfonyl]-2,4-dioxo-1,3-thiazolidine-3-carboxylate] are 10 to 21 nM and 100 to 1000 nM.
`COc1ccc(S(=O)(=O)C2(CCCC#Cc3cc(NC(=O)OCc4ccc([N+](=O)[O-])cc4)ccc3C)SC(=O)N(C(=O)OCc3ccc([N+](=O)[O-])cc3)C2=O)cc1` (stereo not shown) [Example 227, 4-Nitrobenzyl 5-[(4-methoxyphenyl)sulfonyl]-5-{5-[2-methyl-5-({[(4-nitrobenzyl)oxy]carbonyl}amino)phenyl]pent-4-ynyl}-2,4-dioxo-1,3-thiazolidine-3-carboxylate]: the results for the IC50 in assay [1] and in assay [2] were 7 to 10 nM and 210 to 400 nM, respectively.
With “5-[5-(2-Methyl-4-nitrophenyl)pent-4-ynyl]-5-[4-(pyridin-4-yloxy)-benzenesulfonyl]thiazolidine-2,4-dione [Example 128]”, the figures for the IC50 in assay [1] and in assay [2] were 1 to 32 nM and 20 to 220 nM, respectively.
The corresponding values for `COc1ccc(S(=O)(=O)C2(CCCC#Cc3cc([N+](=O)[O-])ccc3OC)SC(=O)NC2=O)cc1` (stereo not shown) [Example 123, 5-(4-Methoxybenzenesulfonyl)-5-[5-(2-methoxy-5-nitrophenyl)pent-4-ynyl]thiazolidine-2,4-dione] are 80 to 82 nM and 1000 to 2800 nM.
In the same order, the values of “5-[5-(4-Chloro-2-methylphenyl)pent-4-ynyl]-5-(4-trifluoromethoxybenzenesulfonyl)-thiazolidine-2,4-dione [Example 140]” are 150 to 300 nM and 1000 to 3600 nM.
For `COc1ccc(S(=O)(=O)C2(CCCC#Cc3cc(NC(=O)OCc4ccccc4)ccc3C)SC(=O)NC2=O)cc1` (stereo not shown) [Example 175, (3-{5-[5-(4-Methoxybenzenesulfonyl)-2,4-dioxothiazolidin-5-yl]pent-1-ynyl}-4-methylphenyl)carbamic Acid Benzyl Ester], the IC50 in assay [1] lay in the range of 10 to 32 nM; in assay [2], 53 to 520 nM.
The corresponding values for `COc1ccc(S(=O)(=O)C2(CCCC#Cc3cc(NC(=O)OCc4ccc([N+](=O)[O-])cc4)ccc3C)SC(=O)NC2=O)cc1` (stereo not shown) [Example 176, (3-{5-[5-(4-Methoxybenzenesulfonyl)-2,4-dioxothiazolidin-5-yl]pent-1-ynyl}-4-methylphenyl)carbamic Acid 4-Nitro- Benzyl Ester] are 3.2 to 32 nM and 30 to 320 nM.
In the same order, the values of `COc1ccc(S(=O)(=O)C2(CCCC#Cc3ccc(Br)cc3C)SC(=O)NC2=O)cc1` (stereo not shown) [Example 143, 5-[5-(4-Bromo-2-methy-phenyl)pent-4-ynyl]-5-(4-methoxybenzene-sulfonyl)-thiazolidine-2,4-dione] are 30 nM and 850 nM.
The corresponding values for `COc1ccc(S(=O)(=O)C2(CCCC#Cc3ccc(NC(=O)OC(C)(C)C)cc3C)SC(=O)NC2=O)cc1` (stereo not shown) [Example 149, (4-{5-[5-(4-Methoxybenzenesulfonyl)-2,4-dioxo-thiazolidin-5-yl)pent-1-ynyl}-3-methylphenyl)carbamic Acid tert-Butyl Ester] are 450 to 500 nM and 1000 to 4900 nM.
Take `COc1ccc(S(=O)(=O)C2(CCCC#Cc3cc(NC(=O)Nc4ccc(Cl)cc4)ccc3C)SC(=O)NC2=O)cc1` (stereo not shown) [Example 189, N-(4-Chlorophenyl)-N′-[3-(5-{5-[(4-methoxyphenyl)sulfonyl]-2,4-dioxo-1,3-thiazolidin-5-yl}-1-pentynyl)-4-methylphenyl]urea]: the results for the half-inhibitory concentration (IC50) in assay [1] and in assay [2] were 100 nM and 1200 nM, respectively.
The corresponding values for `Cc1ccc(S(=O)(=O)C2(CCC/C=C\c3ccc(Cl)cc3)SC(=O)NC2=O)cc1` (stereo not shown) [Example 217, 5-[(4Z)-5-(4-Chloro-phenyl)pent-4-enyl]-5-(toluene-4-sulfonyl)-thiazolidine-2,4-dione] are 100 nM and 8500 nM.
In the same order, the values of `COc1ccc(S(=O)(=O)C2(CCCC#Cc3ccc([N+](=O)[O-])cc3C)SC(=O)NC2=O)cc1` (stereo not shown) [Example 130, 5-(4-Methoxybenzenesulfonyl)-5-[5-(2-methyl-4-nitrophenyl)-pent-4-ynyl]-thiazolidine-2,4-dione] are 23 to 56 nM and 320 to 1000 nM.
In the same order, the values of `COc1ccc(S(=O)(=O)C2(CCCC#Cc3cc([N+](=O)[O-])ccc3C)SC(=O)NC2=O)cc1` (stereo not shown) [Example 122, 5-(4-Methoxybenzenesulfonyl)-5-[5-(2-methyl-5-nitrophenyl)pent-4-ynyl]thiazolidine-2,4-dione] are 30 to 50 nM and 230 to 1000 nM.
`COc1ccc(S(=O)(=O)C2(CCCC#Cc3cc(NC(=O)OCC(C)C)ccc3C)SC(=O)N(C(=O)OCC(C)C)C2=O)cc1` (stereo not shown) [Example 232, Isobutyl 5-(5-{5-[(isobutoxycarbonyl)-amino]-2-methylphenyl}pent-4-ynyl)-5-[(4-methoxyphenyl)sulfonyl]-2,4-dioxo-1,3-thiazolidine-3-carboxylate]: the values for the concentration for half-maximal inhibition (IC50) in assay [1] and in assay [2] were 5 to 10 nM and 40 to 640 nM, respectively.
For the molecule `COc1ccc(S(=O)(=O)C2(CCCC#Cc3ccc(NC(=O)OC(C)(C)C)cc3C(F)(F)F)SC(=O)NC2=O)cc1` (stereo not shown) [Example 151, (4-{5-[5-(4-Methoxybenzenesulfonyl)-2,4-dioxothiazolidin-5-yl]pent-1-ynyl}-3-trifluoromethylphenyl)-carbamic Acid tert-Butyl Ester], the concentration for half-maximal inhibition (IC50) was 530 to 700 nM in assay [1] and 210 to 1000 nM in assay [2].

The values are drawn from US6605628B1, “Method of using 5-(arysulfonyl)-, 5-(arylsulfanyl)-and 5-(arylsulfanyl)thiazolidine-2,4-diones for inhibition of farnesyl-protein transferase” (Wyeth Holdings Corporation, priority 2001, dated 2003).
